Data: patent US10463659B2, “Multi-arm polymer prodrugs” (priority 2003, dated 2019)

Experiments:
[1] = DU-145 prostate tumor xenograft, PEG-docetaxel vs docetaxel; type: in vivo, mice; details: NCr nu/nu, mouse, in vivo, intravenous; DU-145 study, q7 d×2; read-out: tolerated dose (maximum tolerated dose)
DU-145 prostate tumors = test: as above; type: in vivo, mice; details: DU-145, two doses (q7 d×2)
in vivo = details: NCr nu/nu, mouse
Source text: Human NCl-H460 lung tumors (30 to 40 fragments of each) were implanted subcutaneously in the mice (Charles Rivers Labs: NCr nu/nu) near the right axillary area.
The animals were randomized into groups in a manner such that the median tumor weights on the first day of treatment were as close to each other as possible.
The mice received 1 or 2 intravenous doses of test compound or vehicle (saline).
The animals were weighed and the tumors measured twice weekly after administration of the first injection. The tumor volume was measured by caliper measurements (mm) and using the formula of an ellipsoid sphere: L×W^2/2=mm^3, where L and W refer to the larger and smaller perpendicular dimensions collected at each measurement. This formula was also used to calculate tumor weight assuming unit density (1 mm^3=1 mg).
Any animal found moribund or any animal whose tumor reached 4000 mg, ulcerated or was sloughed off was euthanized prior to study termination.

MCF-7 breast tumor cells = test: MCF-7 breast tumor xenograft, 4-arm-PEG-gly-irino-20K vs irinotecan; type: in vivo, Female athymic (Nu:Nu) mice; details: for Days to 4 Times Tumor Size: median; for Tumor Regression Complete / Tumor Regression Partial: n=10
Method: Female athymic (Nu:Nu) mice were injected subcutaneously with MCF-7 breast tumor cells and the tumors were allowed to reach a median volume of 75 mm^3. […] The control group received normal saline. The animals were weighed and tumors were measured twice weekly after administration of the first drug injection.

[2] = Exposure to SN-38 in HT-29 colorectal tumors in mice (FIG. 20); type: in vivo
Method: (§1) Additional illustrative in-vivo studies were carried out as described previously herein or in accordance with methods well-known to one having ordinary skill in the art.

neutrophils = test: Neutropenia in dogs, 4-arm-PEG-GLY-IRINO-20K vs irinotecan (FIG. 21); type: in vivo
Method: as §1

[3] = Diarrhea episodes in dogs (FIG. 23); type: in vivo
Method: as §1

[4] = Toxicity: maximum tolerated dose and side-effects in rat and dog (FIG. 22); type: in vivo
Method: as §1

[5] = Plasma levels of SN-38 in dogs (FIG. 24); type: in vivo
Method: as §1

HT29 tumor fragments = test: HT29 colorectal tumor xenograft, monotherapy study (Example 21); type: in vivo; details: for Tumor growth delay: HT29, all three doses tested (40, 60, or 90 mg/kg); for tolerability: all doses
Source text: HT29 tumor fragments were implanted into female, athymic nude mice in the monotherapy study. […]. Animals were weighed and tumor volumes measured twice weekly after the first drug injection in both studies.

[6] = rodents
[7] = PK/PD study in HT29 colon tumor model (plasma and tumor AUC, t½); details: 40 mg/kg IV q4d x3, Day 1 AUC
[8] = tested on: Human HT29 colon tumor xenografts; test: HT29 colon tumor xenograft, anti-tumor activity (Examples 2 and 6); details: HT29 colon tumors, 3 doses; for delay in tumor growth (anti-tumor activity) compared to the control: 60 mg/kg IV every 4 days
Method: Human HT29 colon tumor xenografts were subcutaneously implanted in athymic nude mice. After about two weeks of adequate tumor growth (100 to 250 mg), these animals were divided into different groups of ten mice each. […] Doses were administered intravenously, with one dose administered every 4 days for a total of 3 administered doses. The mice were observed daily and the tumors were measured with calipers twice a week.
Athymic nude mice were implanted subcutaneously with human cancer cell lines (lung cancer cell line NCl-H460, and colon cancer cell line HT-29) and the tumors allowed to grow to approximately 150 mg in size. The animals were divided into groups of ten mice each.
Tumor volume measurements were taken over a period of 60-80 days; tumor volumes were converted to tumor weight. Body weights were also measured over the same period to provide an indication of weight loss.

[9] = PK/PD study in NCl-H460 lung tumor model (plasma and tumor AUC, t½); details: Day 1 AUC
[10] = single dose, following PEG-Irinotecan administration

CC(=O)O[C@@]12CO[C@@H]1C[C@H](O)[C@@]1(C)C(=O)[C@H](O)C3=C(C)[C@@H](OC(=O)[C@H](O)[C@@H](NC(=O)OC(C)(C)C)c4ccccc4)C[C@@](O)([C@@H](OC(=O)c4ccccc4)[C@H]21)C3(C)C [docetaxel]
MTD at 78 day [1]: ≤ 30 mg/kg
time after which tumors did recover and grow (DU-145 prostate tumors): 30 to 50 days
anti-tumor effect on tumor growth (DU-145 prostate tumors; all 3 doses tested, 78 day observation period): good activity
MTD (in vivo): ≤ 30 mg/kg

Pentaerythritolyl-4-Arm-(PEG-1-Methylene-2Oxo-Vinylamino Acetate Linked-Irinotecan)-20K [4-arm-PEG-GLY-IRINO-20K]
T − C (MCF-7 breast tumor cells; 20 mg/kg per dose x3): >52 days
Days to 4 Times Tumor Size (MCF-7 breast tumor cells; 20 mg/kg per dose x3): >72 days
Tumor Regression Complete (MCF-7 breast tumor cells; 20 mg/kg per dose x3): 0
Tumor Regression Partial (MCF-7 breast tumor cells; 20 mg/kg per dose x3): 0
Median Duration (MCF-7 breast tumor cells; 40 mg/kg per dose x3): 22.0 days
T − C (MCF-7 breast tumor cells; 40 mg/kg per dose x3): >52 days
Days to 4 Times Tumor Size (MCF-7 breast tumor cells; 40 mg/kg per dose x3): >72 days
Tumor Regression Complete (MCF-7 breast tumor cells; 40 mg/kg per dose x3): 0
Tumor Regression Partial (MCF-7 breast tumor cells; 40 mg/kg per dose x3): 1
T − C (MCF-7 breast tumor cells; 60 mg/kg per dose x3): >52 days
Days to 4 Times Tumor Size (MCF-7 breast tumor cells; 60 mg/kg per dose x3): >72 days
Tumor Regression Complete (MCF-7 breast tumor cells; 60 mg/kg per dose x3): 0
Tumor Regression Partial (MCF-7 breast tumor cells; 60 mg/kg per dose x3): 0
T − C (MCF-7 breast tumor cells; 90 mg/kg per dose x3): >52 days
Tumor Regression Partial (MCF-7 breast tumor cells; 90 mg/kg per dose x3, <50% of size observed on Day 1): 1
Median Duration (MCF-7 breast tumor cells; 90 mg/kg per dose x3, interval regressed tumor below 50% pretreatment size): 49.0 days
Days to 4 Times Tumor Size (MCF-7 breast tumor cells; 90 mg/kg per dose x3): >72 days
Tumor Regression Complete (MCF-7 breast tumor cells; 90 mg/kg per dose x3, unpalpable): 0
T-C value compared with irinotecan treatment groups (MCF-7 breast tumor cells; all 4 dose levels, p<0.001): significantly higher
tumor regrowth (MCF-7 breast tumor cells; any dose level (FIG. 15A)): No tumor regrowth occurred
exposure to SN-38 in colorectal tumors in comparison to irinotecan [2]: two to three times logarithmic increase
neutropenia compared to irinotecan at an equivalent dose (neutrophils): reduced neutropenia
diarrhea episodes compared to irinotecan [3]: fewer diarrhea episodes
maximum tolerated dose (MTD) compared to irinotecan ([4]; FIG. 22, rat and dog): significantly higher
occurrence and/or extent and/or severity of side-effects such as neutropenia and diarrhea vs irinotecan ([4]; equivalent doses (FIG. 23)): reduced
plasma levels of SN-38 compared to unmodified irinotecan [5]: elevated and sustained over a longer period of time
complete tumor regression (animals) (HT29 tumor fragments; HT29, 90 mg/kg dose, q4 d×3): 3/10
partial tumor regression (animals) (HT29 tumor fragments; HT29, 90 mg/kg dose, q4 d×3): 1/10
Tumor growth delay (HT29 tumor fragments; q4 d×3): 20.9 to 60.2 days
tumor growth inhibition compared to irinotecan (HT29 tumor fragments; HT29 human colorectal tumor xenograft model): more effectively than irinotecan
tolerability (HT29 tumor fragments): well tolerated
SN38 levels and AUCs after PEG-Irinotecan [6]: very high AUCs
t½ of PEG-Irinotecan, species comparison (in vivo): Dog > rat =
exposure to irinotecan and SN38 vs dosing with irinotecan per se (single dose, all species examined): sustained and greater exposure
AUC of PEG-Irinotecan, species comparison [10]: mouse < rat < dog
AUC of SN38, species comparison [10]: mouse >> rat >> dog
Cmax of PEG-Irinotecan, species comparison [10]: mouse < rat < dog
Cmax of SN38, species comparison [10]: Mouse >> rat >> dog
Exposure (AUC) of Irinotecan, Plasma [7]: 1.5 µg·days/mL
Exposure (AUC) of PEG-Irinotecan, Plasma [7]: 2143 µg·days/mL
Exposure (AUC) of PEG-SN38, Plasma [7]: 784 µg·days/mL
Exposure (AUC) of SN38, Plasma [7]: 5.8 µg·days/mL
delay in tumor growth compared to unconjugated irinotecan ([8]; 60 mg/kg (irinotecan content) IV every 4 days): significantly better
delay in tumor growth (anti-tumor activity) compared to the control [8]: significantly improved when compared to the control
Exposure (AUC) of Irinotecan, Plasma [9]: 2.0 µg·days/mL
Exposure (AUC) of PEG-Irinotecan, Plasma [9]: 1213 µg·days/mL
Exposure (AUC) of PEG-SN38, Plasma [9]: 229 µg·days/mL
Exposure (AUC) of SN38, Plasma [9]: 2.6 µg·days/mL

CCc1c2c(nc3ccc(OC(=O)N4CCC(N5CCCCC5)CC4)cc13)-c1cc3c(c(=O)n1C2)COC(=O)[C@]3(O)CC [irinotecan, 7-ethyl-10[4-(1-piperidino)-1-piperidino] carbonyloxy CPT, reference compound]
Days to 4 Times Tumor Size (MCF-7 breast tumor cells; 20 mg/kg per dose x3): 40.2 days
Tumor Regression Complete (MCF-7 breast tumor cells; 20 mg/kg per dose x3): 0
Tumor Regression Partial (MCF-7 breast tumor cells; 20 mg/kg per dose x3): 0
Median Duration (MCF-7 breast tumor cells; 40 mg/kg per dose x3): 42.0 days
Days to 4 Times Tumor Size (MCF-7 breast tumor cells; 40 mg/kg per dose x3): 42.8 days
Tumor Regression Complete (MCF-7 breast tumor cells; 40 mg/kg per dose x3): 0
Tumor Regression Partial (MCF-7 breast tumor cells; 40 mg/kg per dose x3): 1
Tumor growth delay (HT29 tumor fragments; q4 d×3): 0.3 to 1.6 days
tolerability (HT29 tumor fragments): well tolerated
Exposure (AUC) of Irinotecan, Plasma [7]: 0.3 µg·days/mL
Exposure (AUC) of SN38, Plasma [7]: 0.01 µg·days/mL
delay in tumor growth (anti-tumor activity) compared to the control [8]: significantly improved when compared to the control
Exposure (AUC) of Irinotecan, Plasma [9]: 0.5 µg·days/mL
Exposure (AUC) of SN38, Plasma [9]: 0.2 µg·days/mL
